The test system of experiment [1] is A. baumanii strains with elevated MICs to Polymyxin B. Put plainly: MIC against strains with elevated MICs to Polymyxin B. It counts as cell-based, Acinetobacter baumannii. Particulars: Table 6D; for MIC A. baumannii 053: strain 053, elevated MIC to Polymyxin B; for MIC A. baumannii 056: strain 056, elevated MIC to Polymyxin B; for MIC A. baumannii 068: strain 068, elevated MIC to Polymyxin B; for MIC A. baumannii 070: strain 070, elevated MIC to Polymyxin B. The essentials: (§1)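 Duplicate runs; >2-fold disagreement = invalid, <2-fold = lower value kept. Inoculum: colonies (18-24 h Mueller-Hinton agar) suspended directly to 0.5 McFarland. Multiple tests → modal MIC.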

Experiment [2] has as its system E. coli strains with elevated MICs to Polymyxin B. Described as above. The class given is cell-based, Escherichia coli. To be noted: Table 6D; for MIC E. coli 058: strain 058, elevated MIC to Polymyxin B; for MIC E. coli 059: strain 059, elevated MIC to Polymyxin B; for MIC E. coli 060: strain 060, elevated MIC to Polymyxin B; for MIC E. coli 061: strain 061, elevated MIC to Polymyxin B. The essentials: as §1

Experiment [3] has as its system K. pneumoniae. Particulars: sole activity, Table 6C.
Experiment [4] relates to E. coli. Particulars: sole activity, Table 6C.
Experiment [5] has as its system P. aeruginosa. Particulars: sole activity, Table 6C.
For experiment [6], the system named is P. aeruginosa strains with elevated MICs to Polymyxin B. Nature of the experiment: MIC against strains with elevated MICs to Polymyxin B. To be noted: Table 6D; for MIC P. aeruginosa 065: strain 065, elevated MIC to Polymyxin B; for MIC P. aeruginosa 066: strain 066, elevated MIC to Polymyxin B; for MIC P. aeruginosa 067: strain 067, elevated MIC to Polymyxin B. The class given is cell-based, Pseudomonas aeruginosa. The essentials: as §1

Experiment [7] relates to K. pneumoniae strains with elevated MICs to Polymyxin B. Described as above. It counts as cell-based, Klebsiella pneumoniae. To be noted: Table 6D; for MIC K. pneumoniae 062: strain 062, elevated MIC to Polymyxin B; for MIC K. pneumoniae 063: strain 063, elevated MIC to Polymyxin B; for MIC K. pneumoniae 064: strain 064, elevated MIC to Polymyxin B; for MIC K. pneumoniae 655: strain 655, elevated MIC to Polymyxin B. The essentials: as §1

The test system of experiment [8] is A. baumannii. To be noted: sole activity, Table 6C.

The values below come from patent US20210221848A1, “POLYMYXIN DERIVATIVES AND THEIR USE IN COMBINATION THERAPY TOGETHER WITH DIFFERENT ANTIBIOTICS” (priority 2014, published 2021).

In the case of “(trans-5-(isobutyl- piperidine)-3- carbonyl L-Ser- L-Dap-polymyxin B heptapeptide [Example D79]”, in experiment [1], the “MIC A. baumannii 053” value is reported as 128 micrograms/mL, the “MIC A. baumannii 056” value amounted to 32 micrograms/mL, the “MIC A. baumannii 068” value was 8 micrograms/mL and the “MIC A. baumannii 070” value is 16 micrograms/mL. In experiment [2], the “MIC E. coli 058” value was 8 micrograms/mL, the “MIC E. coli 059” value is reported as 8 micrograms/mL, the “MIC E. coli 060” value is given as 4 micrograms/mL and the “MIC E. coli 061” value is reported as 8 micrograms/mL. In addition, in experiment [3], the “MIC, K. pneumoniae ATCC 4352” value was 0.06 micrograms/mL and the “MIC, K. pneumoniae ATCC BAA-2146” value is 0.125 micrograms/mL. Also, in experiment [4], the “MIC, E. coli ATCC 25922” value was found to be 0.125 micrograms/mL and the “MIC, E. coli NCTC 13441” value is listed as 0.125 micrograms/mL. In addition, in experiment [5], the “MIC, P. aeruginosa ATCC 27853” value worked out at 0.25 micrograms/mL and the “MIC, P. aeruginosa CCUG 59347” value came out at 0.25 micrograms/mL. Moreover, in experiment [6], the “MIC P. aeruginosa 065” value is given as 16 micrograms/mL, the “MIC P. aeruginosa 066” value is reported as 8 micrograms/mL and the “MIC P. aeruginosa 067” value is recorded as above 128 micrograms/mL. Also, in experiment [7], the “MIC K. pneumoniae 062” value stood at 64 micrograms/mL, the “MIC K. pneumoniae 063” value is reported as above 128 micrograms/mL, the “MIC K. pneumoniae 064” value came to 8 micrograms/mL and the “MIC K. pneumoniae 655” value came out at 128 micrograms/mL. In experiment [8], the “MIC, A. baumannii ATCC BAA-747” value is 0.06 micrograms/mL and the “MIC, A. baumannii NCTC 13424” value amounted to 0.125 micrograms/mL.
For “(trans-5-(isobutyl- piperidine)-3- carbonyl L-Thr- D-Dap-polymyxin B heptapeptide [Example D87]”, in experiment [1], the “MIC A. baumannii 053” value worked out at 32 micrograms/mL, the “MIC A. baumannii 056” value came out at 2 micrograms/mL, the “MIC A. baumannii 068” value worked out at 2 micrograms/mL and the “MIC A. baumannii 070” value turned out to be 2 micrograms/mL. Also, in experiment [2], the “MIC E. coli 058” value was 1 micrograms/mL, the “MIC E. coli 059” value is on record as 1 micrograms/mL, the “MIC E. coli 060” value was found to be 1 micrograms/mL and the “MIC E. coli 061” value is reported as 4 micrograms/mL. In addition, the “MIC, K. pneumoniae ATCC 4352” value in experiment [3] came out at 0.06 micrograms/mL. In experiment [4], the “MIC, E. coli ATCC 25922” value turned out to be 0.03 micrograms/mL. In addition, in experiment [5], the “MIC, P. aeruginosa ATCC 27853” value was 0.25 micrograms/mL and the “MIC, P. aeruginosa CCUG 59347” value came to 1 micrograms/mL. Also, in experiment [6], the “MIC P. aeruginosa 065” value is 0.5 micrograms/mL, the “MIC P. aeruginosa 066” value came out at 0.25 micrograms/mL and the “MIC P. aeruginosa 067” value was determined as 64 micrograms/mL. Further, in experiment [7], the “MIC K. pneumoniae 062” value was 8 micrograms/mL, the “MIC K. pneumoniae 063” value is recorded as 8 micrograms/mL, the “MIC K. pneumoniae 064” value was determined as 0.5 micrograms/mL and the “MIC K. pneumoniae 655” value is 4 micrograms/mL. Further, in experiment [8], the “MIC, A. baumannii ATCC BAA-747” value is listed as 0.03 micrograms/mL and the “MIC, A. baumannii NCTC 13424” value amounted to 0.03 micrograms/mL.
For the substance “(trans-5-(isobutyl- piperidine)-3- carbonyl L-Thr- D-Ser-polymyxin B heptapeptide [Example D82]”, in experiment [1], the “MIC A. baumannii 053” value is recorded as 16 micrograms/mL, the “MIC A. baumannii 056” value turned out to be 8 micrograms/mL, the “MIC A. baumannii 068” value turned out to be 32 micrograms/mL and the “MIC A. baumannii 070” value is 32 micrograms/mL. In experiment [2], the “MIC E. coli 058” value worked out at 4 micrograms/mL, the “MIC E. coli 059” value came to 4 micrograms/mL, the “MIC E. coli 060” value worked out at 4 micrograms/mL and the “MIC E. coli 061” value is on record as 8 micrograms/mL. Further, the “MIC, K. pneumoniae ATCC 4352” value in experiment [3] came out at 0.06 micrograms/mL. Also, in experiment [4], the “MIC, E. coli ATCC 25922” value is recorded as 0.125 micrograms/mL. Further, in experiment [5], the “MIC, P. aeruginosa ATCC 27853” value is 2 micrograms/mL and the “MIC, P. aeruginosa CCUG 59347” value is recorded as 4 micrograms/mL. Further, in experiment [6], the “MIC P. aeruginosa 065” value amounted to 0.5 micrograms/mL and the “MIC P. aeruginosa 067” value is 64 micrograms/mL. In experiment [7], the “MIC K. pneumoniae 062” value is 32 micrograms/mL, the “MIC K. pneumoniae 063” value is 16 micrograms/mL, the “MIC K. pneumoniae 064” value is 1 micrograms/mL and the “MIC K. pneumoniae 655” value came to 8 micrograms/mL. For the same substance, in experiment [8], the “MIC, A. baumannii ATCC BAA-747” value is reported as 0.06 micrograms/mL and the “MIC, A. baumannii NCTC 13424” value stood at 0.125 micrograms/mL.
With “(trans-5-(isobutyl- piperidine)-3- carbonyl L-Thr-L- Dap-polymyxin E heptapeptide [Example D77]”, in experiment [1], the “MIC A. baumannii 053” value turned out to be 64 micrograms/mL, the “MIC A. baumannii 068” value was found to be 4 micrograms/mL and the “MIC A. baumannii 070” value is recorded as 4 micrograms/mL. Besides, in experiment [2], the “MIC E. coli 058” value is 2 micrograms/mL, the “MIC E. coli 059” value is on record as 4 micrograms/mL, the “MIC E. coli 060” value was 1 micrograms/mL and the “MIC E. coli 061” value was determined as 4 micrograms/mL. For the same substance, in experiment [3], the “MIC, K. pneumoniae ATCC 4352” value was found to be 0.125 micrograms/mL and the “MIC, K. pneumoniae ATCC BAA-2146” value came to 0.125 micrograms/mL. Besides, in experiment [4], the “MIC, E. coli ATCC 25922” value worked out at 0.06 micrograms/mL and the “MIC, E. coli NCTC 13441” value turned out to be 0.06 micrograms/mL. In experiment [5], the “MIC, P. aeruginosa ATCC 27853” value was 0.5 micrograms/mL and the “MIC, P. aeruginosa CCUG 59347” value is on record as 1 micrograms/mL. For the same substance, in experiment [6], the “MIC P. aeruginosa 065” value came to 4 micrograms/mL, the “MIC P. aeruginosa 066” value worked out at 2 micrograms/mL and the “MIC P. aeruginosa 067” value stood at 128 micrograms/mL. For the same substance, in experiment [7], the “MIC K. pneumoniae 062” value stood at 32 micrograms/mL, the “MIC K. pneumoniae 063” value was determined as 16 micrograms/mL, the “MIC K. pneumoniae 064” value amounted to 4 micrograms/mL and the “MIC K. pneumoniae 655” value is 16 micrograms/mL. In experiment [8], the “MIC, A. baumannii ATCC BAA-747” value is recorded as 0.06 micrograms/mL and the “MIC, A. baumannii NCTC 13424” value came out at 0.06 micrograms/mL.
Take “cis-5- (benzylcarbamoyl) piperidine-3- carbonyl L-Thr-L- Dap-polymyxin B heptapeptide [Example D75]”: in experiment [1], the “MIC A. baumannii 053” value amounted to 64 micrograms/mL, the “MIC A. baumannii 056” value is recorded as 8 micrograms/mL, the “MIC A. baumannii 068” value turned out to be 16 micrograms/mL and the “MIC A. baumannii 070” value worked out at 32 micrograms/mL. Moreover, in experiment [2], the “MIC E. coli 058” value amounted to 4 micrograms/mL, the “MIC E. coli 059” value is given as 8 micrograms/mL, the “MIC E. coli 060” value is 4 micrograms/mL and the “MIC E. coli 061” value stood at 8 micrograms/mL. Also, in experiment [3], the “MIC, K. pneumoniae ATCC 4352” value was 0.06 micrograms/mL and the “MIC, K. pneumoniae ATCC BAA-2146” value was 0.125 micrograms/mL. Also, in experiment [4], the “MIC, E. coli ATCC 25922” value was found to be 0.06 micrograms/mL and the “MIC, E. coli NCTC 13441” value is reported as 0.125 micrograms/mL. In experiment [5], the “MIC, P. aeruginosa ATCC 27853” value turned out to be 0.5 micrograms/mL and the “MIC, P. aeruginosa CCUG 59347” value worked out at 0.5 micrograms/mL. For the same substance, in experiment [6], the “MIC P. aeruginosa 065” value came to 4 micrograms/mL and the “MIC P. aeruginosa 066” value worked out at 8 micrograms/mL. Further, in experiment [7], the “MIC K. pneumoniae 062” value is recorded as 128 micrograms/mL, the “MIC K. pneumoniae 063” value was 64 micrograms/mL, the “MIC K. pneumoniae 064” value is reported as 8 micrograms/mL and the “MIC K. pneumoniae 655” value came to 64 micrograms/mL. Moreover, in experiment [8], the “MIC, A. baumannii ATCC BAA-747” value was found to be 0.06 micrograms/mL and the “MIC, A. baumannii NCTC 13424” value came to 0.125 micrograms/mL.
